What all share (assay): NCI anticancer screen, dose series, 48 h
Experiment [1] concerns MCF7 breast.
Experiment [2] concerns NCI-H23 lung.
Experiment [3] has as its system HS 578T breast.
Experiment [4] relates to SK-MEL-28 melanoma.
The subject of experiment [5] is SF-268 CNS.
For experiment [6], the system named is SK-MEL-2 melanoma.
For experiment [7], the system named is SK-OV-3 ovarian.
Experiment [8] has as its system IGROV1 ovarian.
For experiment [9], the system named is SNB-75 CNS.
The subject of experiment [10] is CAKI-1 renal.

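The compound was tested at five concentrations on cells cultured in 96-well plates, with a 48-hour exposure period. GI50 marks 50% less growth. TGI marks complete inhibition of growth.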

As for `NC1=CC(=O)c2c(O)ccc(O)c2C1=O`, the TGI in experiment [1] was 18.6 µM; in [2], 27.9 µM; in experiment [3], 68.3 µM; in experiment [4] it was 38 µM; in experiment [5] it was above 70.1 µM; in [6] it was 32.6 µM. Besides, the TGI was above 94.5 µM in experiment [7], 29.5 µM in [8], 83.3 µM in experiment [9] and 66.8 µM in experiment [10].
Turning to `CC1=CC2C3(C)C(C)(C(C)=CP3(=O)c3c(C(C)C)cc(C(C)C)cc3C(C)C)C1P2(=O)c1c(C(C)C)cc(C(C)C)cc1C(C)C` (centres undefined), the TGI in experiment [1] is 6.38 µM; in experiment [2] it was 4.09 µM; in experiment [3], 6.25 µM; in [4], 8.23 µM; in [5], 12.1 µM; in [6], 3.37 µM. Besides, the TGI in experiment [7] was 10.9 µM; in [8], 6.1 µM; in [9], 12.1 µM; in experiment [10], 15.9 µM.
For the compound `O=c1oc2ccc3ccccc3c2cc1-c1cn2ccsc2n1`, the TGI in [1] is 19 µM; in experiment [2], 92 µM; in experiment [3] it was above 100 µM; in experiment [4] it was 57.3 µM; in experiment [5] it was 56.3 µM; in [6] it was above 100 µM. The TGI in experiment [7] was above 100 µM; in experiment [8], 23.2 µM; in experiment [9] it was above 100 µM; in experiment [10], 59 µM.
On to `O=c1[nH]c(NCc2ccncc2)nc2nc[nH]c12`, for which the TGI in experiment [1], in experiment [2], in experiment [3], in experiment [5], in experiment [6] and in [7] was above 100 µM in each case. Also, the TGI in [8], in experiment [9] and in [10] was above 100 µM each time.
For `Cc1ccccc1-c1nc2c(N)nc(N)nc2nc1N`, the TGI in [1], in experiment [2], in experiment [3], in experiment [4], in experiment [5] and in experiment [6] was above 100 µM in each case. Moreover, the TGI in experiment [7], in experiment [8], in experiment [9] and in [10] was above 100 µM throughout.
For `O=C(NCc1ccccc1)c1cc2ccccc2oc1=Nc1cccc(C(F)(F)F)c1`, the TGI in experiment [1], in experiment [2], in experiment [3], in experiment [4], in experiment [5] and in [6] was above 100 µM throughout. Besides, the TGI in experiment [7], in experiment [8], in experiment [9] and in [10] was above 100 µM throughout.
In the case of `Cc1nc2ccc(Cl)cc2c(-n2ccnc2)c1CCn1ccnc1`, the TGI in [1] was above 100 µM; in [2], above 100 µM; in [3], 49.1 µM; in [4] it was 92.8 µM; in [5] it was above 100 µM; in experiment [6], 44.7 µM. Moreover, the TGI in [7] is above 100 µM; in experiment [8], above 100 µM; in [9], 72.8 µM; in experiment [10] it was above 100 µM.
As to `O=C(O)c1nc2ccc(C(F)(F)F)cc2[nH]c1=O`, the TGI in [1], in [2], in [3], in experiment [4], in experiment [5] and in experiment [6] was above 100 µM in each case. For the same compound, the TGI in experiment [7], in [8] and in experiment [10] was above 100 µM in each case.
For `COC(=O)[C@]1(C)CCC[C@@]2(C)C1CC[C@]13C=C(C(C)C)[C@H](CC21)CC3(Cl)C#N` (some centres undefined), the TGI in experiment [1], in [2], in experiment [3], in [4], in experiment [5] and in experiment [7] was above 100 µM in each case. Also, the TGI in [8], in [9] and in experiment [10] was above 100 µM in each case.
With `CN(CCN1CCCC1)C1CCc2cc(Cl)c(Cl)cc2C1` (centres undefined), the TGI came to 29 µM in experiment [1]; 30.1 µM in experiment [2]; 56.2 µM in experiment [3]; 67.9 µM in [4]; 34 µM in experiment [5]; 35.2 µM in experiment [6]. The TGI in experiment [7] was 32.4 µM; in experiment [8] it was 29.3 µM; in experiment [10] it was 33.6 µM.
As for `CO/N=C1\CC(NC(=O)C(F)(F)F)c2ccsc21` (centres undefined), the TGI in experiment [1], in experiment [2], in experiment [3], in [4], in [5] and in [6] was above 100 µM each time. For the same compound, the TGI in experiment [7], in experiment [8], in experiment [9] and in experiment [10] was above 100 µM throughout.
As to `Cn1c2ccccc2n2c3ncccc3c(=O)c(C#N)c12`, the TGI is 21.1 µM in [1]; 36.6 µM in experiment [2]; above 94.1 µM in experiment [3]; above 100 µM in [4]; above 100 µM in experiment [5]; 97.4 µM in [6]. Further, the TGI is 98.1 µM in experiment [7], above 100 µM in experiment [8], above 79.9 µM in [9] and above 77.3 µM in [10].
In the case of `S=C(Cc1ccc2c(c1)Sc1ccccc1O2)N1CCOCC1`, the TGI in experiment [1] was above 100 µM; in [2], above 100 µM; in experiment [3], 61.6 µM; in [4] it was above 100 µM; in experiment [5] it was above 100 µM; in experiment [6], above 100 µM. For the same compound, the TGI in experiment [7] is above 100 µM; in experiment [8] it was above 100 µM; in experiment [9], 60.6 µM; in experiment [10], above 100 µM.
`CC(C)NC(=O)OCc1c(COC(=O)NC(C)C)n(C)c2c1ccc1sccc12`: the TGI in experiment [1] was above 55.5 µM; in experiment [2], 29.3 µM; in experiment [3], 34.6 µM; in [4], 57.3 µM; in [5] it was 21.5 µM; in experiment [6] it was 36.2 µM. Besides, the TGI in [7] is above 100 µM; in experiment [8], 26.1 µM; in experiment [9], 32.4 µM; in experiment [10], 50.1 µM.
As for `COC(=O)c1ccccc1C1CN=NC12Cc1c(ccc(C)c1C)C2=O` (centres undefined), the TGI in [1], in experiment [2], in experiment [3], in experiment [4], in experiment [5] and in [6] was above 100 µM in each case. Besides, the TGI in experiment [7] was above 100 µM; in experiment [8], above 100 µM; in [9], 89.1 µM; in experiment [10], above 100 µM.
Turning to `CN(O)C(=O)/C=C/c1ccc(OCc2cccc(Cl)c2)cc1`, the TGI is above 100 µM in experiment [1]; 49 µM in experiment [2]; above 100 µM in [3]; above 100 µM in experiment [4]; above 100 µM in experiment [5]; 82.7 µM in [6]. Moreover, the TGI was above 100 µM in [7], 60.8 µM in [8], above 100 µM in experiment [9] and 62.6 µM in experiment [10].
As to `CC(=O)c1ccc(Oc2c3ccccc3nc3ccccc23)cc1`, the TGI in experiment [1] was determined as 12.1 µM; in experiment [2], 56.6 µM; in experiment [3] it was 31.3 µM; in [4] it was 28.5 µM; in experiment [5], 17.9 µM; in [6], 21.4 µM. The TGI worked out at 29.3 µM in [7], 17.4 µM in experiment [8], 29.7 µM in [9] and 17.3 µM in experiment [10].
For `O=C(ON=C1c2ccccc2C(Br)C(Br)c2ccccc21)c1ccccc1` (centres undefined), the TGI is 31.5 µM in experiment [1]; 37.8 µM in experiment [2]; 53.6 µM in experiment [3]; 33.2 µM in experiment [4]; 42.3 µM in experiment [5]; above 63.6 µM in [6]. In addition, the TGI in experiment [7] was 38.9 µM; in experiment [8], 6.27 µM; in experiment [9] it was above 65.9 µM; in experiment [10], 23.7 µM.
For `O=C1C=CC2(O[C@H](c3ccccc3)[C@@H](c3ccccc3)O2)[C@H](Sc2ccccc2O)C1`, the TGI in experiment [1] is 2.44 µM; in experiment [2], 2.39 µM; in experiment [3], 7.88 µM; in experiment [5] it was 0.964 µM; in experiment [6], 4.63 µM; in [7], 11.8 µM. Also, the values for the TGI in [8], in experiment [9] and in [10] were 0.593 µM, 8.16 µM and 0.886 µM, respectively.
As for `O=C(c1ccco1)N(C(=O)N1CCCCC1)c1ccccc1`, the TGI in experiment [1], in experiment [2], in [3], in experiment [4], in experiment [5] and in experiment [6] was above 100 µM in each case. Besides, the TGI in experiment [7], in experiment [8] and in experiment [10] was above 100 µM in each case.
On to `COC(=O)/C=C(\C)CC/C=C(\C)CCC1OC1(C)C` (centres undefined), for which the TGI in experiment [1] is 21.8 µM; in experiment [2] it was 24.2 µM; in [3] it was 35.2 µM; in experiment [4], 23.3 µM; in experiment [6] it was 21.2 µM; in experiment [7], above 75 µM. The TGI was found to be 26.9 µM in experiment [8], 38.8 µM in [9] and 22.3 µM in experiment [10].
Consider `COc1cccc(C2c3cc4c(cc3OC(O)C2C)OCO4)c1OC` (centres undefined), for which the TGI in experiment [1] is above 100 µM; in [2] it was 64 µM; in experiment [3], 32.8 µM; in [4], 39.5 µM; in [5] it was 41.7 µM; in experiment [6], 25.6 µM. The TGI in [8] is 36.4 µM; in experiment [9] it was 32.4 µM; in experiment [10], 13.9 µM.
On to `CCCCCCCCCCCCCCCCCCOc1ccccc1CC(=O)NCC[N+]1(C)CCOCC1`, for which the GI50 in [1] was 2.71 µM; in experiment [2], 3.03 µM; in [3] it was 2.38 µM; in experiment [4] it was 7.69 µM; in experiment [5], 2.77 µM; in experiment [6] it was 13.9 µM. The GI50 in experiment [7] is 13.9 µM; in experiment [10], 18.4 µM. The TGI in experiment [1] was 9.34 µM; in experiment [2], 14.2 µM; in experiment [3] it was 9.56 µM; in experiment [4] it was 49.8 µM; in experiment [5], 31.2 µM; in experiment [6], 34.6 µM. Further, the TGI is 32.4 µM in experiment [7] and 38.3 µM in experiment [10].
For `Cc1ccc(-c2cc(-c3ccco3)c(C#N)c(=S)[nH]2)cc1`, the TGI in [1] was above 100 µM; in [2], 97.8 µM; in experiment [3], above 100 µM; in experiment [4] it was above 100 µM; in experiment [5] it was above 100 µM; in [7], above 100 µM. Moreover, the TGI in experiment [8], in experiment [9] and in experiment [10] was above 100 µM each time.
`CC(=O)O[C@@H](c1nccn1Cc1ccccc1)[C@H]1OC(C)(C)O[C@@H]1[C@H]1COC(C)(C)O1`: the TGI in [1], in experiment [2], in experiment [3], in [4], in [5] and in [6] was above 100 µM each time. Besides, the TGI in experiment [8], in experiment [9] and in experiment [10] was above 100 µM throughout.
As to `CCOC(=O)c1c(N2CCCC2)[nH]c(=O)c(C(c2ccc(OC)cc2)c2c(O)c(C(=O)OCC)c(N3CCCC3)[nH]c2=O)c1O`, the TGI in experiment [1] is above 100 µM; in [2], above 100 µM; in [3] it was above 100 µM; in experiment [4], above 100 µM; in experiment [5] it was above 100 µM; in [6] it was 53.9 µM. The TGI in [7] is above 100 µM; in experiment [9], 69 µM; in [10], 71.1 µM.
In the case of `COc1ccc2ccc3oc(=O)c(C)cc3c2c1`, the TGI in experiment [1], in experiment [2], in experiment [3], in experiment [4], in experiment [5] and in [6] was above 100 µM throughout. Besides, the TGI in experiment [8], in experiment [9] and in experiment [10] was above 100 µM throughout.

Source of the values: PubChem BioAssay (NCI).
